Source: US20240299384A1, “METHODS FOR TREATING PULMONARY HYPERTENSION IN PATIENTS WITH LEFT VENTRICULAR ASSIST DEVICE IMPLANTATION” (ACTELION PHARMACEUTICALS LTD, priority 2021, published 2024)

Tested on: healthy male subjects
Experiment: Phase 1 open-label study of 75 mg qd macitentan with and without up-titration: safety
Type: in vivo, human
Procedure: This is a single-sequence, open-label, single-center, Phase 1 study in healthy male subjects. The study assessed the effect of 75 mg qd administration of macitentan. The study includes a screening phase of 21 days before the first macitentan administration, followed by an open-label treatment phase. Randomization was not used and subjects received the same treatment.
• 29 subjects were enrolled.
Administration of 75 mg qd macitentan started on Day 1. Macitentan was administered every day in the morning between 8:00 and 11:00 with 240 mL of noncarbonated water. One 75-mg macitentan film-coated tablet was thus administered as multiple qd oral doses under fed conditions.
Subjects were planned to take macitentan 75 mg for 15 days. However the study was interrupted on the morning of day 8, i.e. when subjects had received 7 doses of macitentan 75 mg.
Macitentan was administered in an up-titration regimen in the morning between 8:00 and 11:00 with 240 mL of noncarbonated water. One macitentan film-coated tablet (10 mg, 37.5 mg or 75 mg) was administered as multiple qd oral doses under fed conditions on Days 1-9 and Days 11-12, and under fasted conditions on Days 10 and 13. The up-titration regimen consists of 2 qd doses of 10 mg macitentan and 3 qd doses of 37.5 mg macitentan followed by 8 qd doses of 75 mg macitentan. On Days −4, −3, 10 and 13 (i.e., the days when dosing occurred under fasted conditions), no fluid intake apart from the water taken at the time of macitentan administration was allowed from 1 hour before until 1 hour after administration of macitentan.
All reported AEs with onset during the treatment phase were included in the analysis. The effects on cardiovascular variables were evaluated and the following variables were collected: PR (ms), QRS (ms), QT (ms), QTcB (ms), QTcF (ms), heart rate (bpm), and RR. The normal range for vital signs is defined as follows: • Systolic blood pressure: 100-140 mmHg • Diastolic blood pressure: 60-90 mmHg • Pulse rate: 45-90 bpm • Respiratory rate: 8-20 per minute • Body temperature: 35.0° C. to 37.5° C.
An AE is any untoward medical occurrence, i.e., any unfavorable and unintended sign (including an abnormal finding), symptom, or disease temporally associated with the use of macitentan. A treatment-emergent AE is any occurrence that is new in onset or aggravated in severity from the baseline condition. The following are used to assess all AEs: • Related: There is a reasonable causal relationship between macitentan administration and the AE. • Not Related: There is not a reasonable causal relationship between macitentan administration and the AE.
An assessment of AE severity grade was made using the following general categorical descriptors: • Mild: Awareness of symptoms that are easily tolerated, causing minimal discomfort and not interfering with everyday activities. • Moderate: Sufficient discomfort is present to cause interference with normal activity. • Severe: Extreme distress, causing significant impairment of functioning or incapacitation. Prevents normal everyday activities.

[1] = 75 mg qd, no titration, 6 subjects

CCCNS(=O)(=O)Nc1ncnc(OCCOc2ncc(Br)cn2)c1-c1ccc(Br)cc1 [Macitentan, propylsulfamic acid [5-(4-bromo-phenyl)-6-[2-(5-bromo-pyrimidin-2-yloxy)-ethoxy]-pyrimidin-4-yl]-amide]
reduction in hemoglobin (75 mg qd): ≤ 2 g/dL | vital signs, ECG and lab parameters (75 mg qd): no clinically significant changes | severity of AEs overall (75 mg qd, AEs reported from Day 2 onwards): mainly mild | Photophobia, Severity of AEs (No titration) [1]: All mild | Sinusitis/rhinitis/nasal congestion, Severity of AEs (No titration) [1]: All mild | tolerability with up-titration regimen (75 mg, up-titration vs no up-titration): improved tolerability | resolution of AEs (four days after stopping macitentan): most of the AEs resolved | Sinusitis/rhinitis/nasal congestion, Severity of AEs (With titration) (up-titration 10 mg, 37.5 mg, 75 mg qd, 6 subjects): Mild, less | completion of treatment (up-titration regimen cohort): All subjects completed treatment
